These results are taken from US11459336B2, “Pyrazine carbamates and their use as GluN2B receptor modulators” (JANSSEN PHARMACEUTICA NV, priority 2019, dated 2022).

A short description of data set [1]: Liver microsomal stability assay (extraction ratio). It is filed as in vitro ADME. The note with it: test compound 1 μM; 0.5 mg/mL liver microsomes, 1 mM NADPH, 37° C.; species not given (method: mouse, rat, and human). As for the experimental part: Microsomal stability studies (see, Chrovian et al, “1H-Pyrrolo[3,2-b]pyridine GluN2B-Selective Negative Allosteric Modulators”. ACS Med Chem Lett. 2019 Jan. 10; 10(3):261-266) were conducted on a Biomek® FX Robotic Liquid Handling Workstation (Beckman Coulter, Brea, Calif.), which consists of a 96-channel pipette head, a 12-position workstation deck, and a plate incubator. Test compounds (1 μM) were spiked in a reaction mix consisting of 100 mM potassium phosphate buffer (pH 7.4), 3 mM MgCl2, and 0.5 mg/mL liver microsomes from mouse, rat, and human (BD Gentest). The reaction was brought to 37° C. and initiated by adding NADPH to a final concentration of 1 mM. After mixing on the platedeck, 50 μL aliquots were excised from the reaction plate at 0, 5, 10, 20, 40, and 60 min and quenched with four volumes of acetonitrile spiked with […] of the internal standard phenytoin. Quenched plates were centrifuged at 5700 rpm for 10 min at 4° C., and supernatant was diluted 1:3 in water before LC/MS/MS analysis. The compound half-lives were derived from plots of the ln of percent remaining compound over time to determine the intrinsic clearance. The predicted hepatic clearance was derived from the intrinsic clearance value using equations from the well-stirred model (Current Drug Metabolism, 2008, 9, 940-951), where no correction was made plasma protein binding and the blood to plasma concentration ratio was assumed to be one. The extraction ratio (ER) was calculated by dividing the predicted hepatic clearance by species blood flow (Q), where Q is 90, 55, and 21.7 mL/min/kg for mouse, rat and human, respectively.

Data set [2] concerns the target T1, human GluN1/GluN2B NMDA receptors (Homo sapiens, UniProt Q05586+Q13224).
T1 construct: expressed in transfected cells
The experiment in a line: Calcium flux (FLIPR) assay on cloned human GluN1/GluN2B ion channels expressed in mammalian cells, standard assay. It is filed as cell-based. As to conditions: glutamate ~EC40, 10 μM glycine, stable cell line with Tet-On induced expression. As for the experimental part: (§1) NMDA receptors are ion channels that are highly permeable to Ca^2+ ions, rendering it possible to monitor NMDA receptor function using cell-based calcium flux assay. In this assay, co-agonists glutamate and glycine are added to cells heterologously expressing human GluN1/GluN2B NMDA receptors to initiate cellular Ca^2+ influx. The time course of the changes in intracellular calcium is measured using a fluorescent dye and a FLIPR (Fluorometric Imaging Plate Reader) device.
(§2) Twenty four hours before measurements, the expression of the NMDA receptors in the stable cell line is induced with Tet-On inducible system in the presence of a non-selective NMDA receptor blocker. On the day of the experiment, cell culture media is carefully washed and the cells are loaded with Calcium 5 Dye Kit (Molecular Devices) in dye loading buffer containing 137 mM NaCl, 4 mM KCl, 2 mM CaCl2, 0.5 mM MgCl2 (standard assay) or 1.5 mM MgCl2 (HTS assay), 10 mM HEPES and 5 mM D-glucose; pH 7.4. After 1 h incubation at the room temperature, the dye is washed away with the assay buffer (137 mM NaCl (standard assay) or 150 mM (HTS assay), 4 mM KCl (standard assay) or 3 mM (HTS assay), 2 mM CaCl2, 0.01 mM EDTA, 10 mM HEPES and 5 mM D-glucose; pH 7.4) In the FLIPR TETRA reader, various concentrations of the test compounds are added to the cells for 5 min while fluorescence is monitored to detect potential agonist activity. Next, co-agonists, glutamate and glycine are added for another 5 minutes. The concentration of glutamate corresponding to ˜EC40 (standard assay) or EC40 (HTS assay) is used to maximize the assay's signal window and ability to detect NMDA receptor antagonists and negative allosteric modulators. A saturating concentration (10 μM) of glycine is also present in the assay. A non-selective NMDA receptor antagonist, (+)MK-801 is used as a positive control for antagonist activity. The fluorescent signal in the presence of test compounds is quantified and normalized to the signal defined by the appropriate control wells.

Data set [3] concerns the target T2, human GluN1/GluN2B NMDA receptors (Homo sapiens, UniProt Q13224).
T2 construct: expressed in transfected cells
The description is as above. As to conditions: glutamate ~EC40, 10 μM glycine, stable cell line with Tet-On induced expression. It is filed as cell-based. As for the experimental part: as §1, §2

T1 sequence (Q13224 27-1484, other chains not shown): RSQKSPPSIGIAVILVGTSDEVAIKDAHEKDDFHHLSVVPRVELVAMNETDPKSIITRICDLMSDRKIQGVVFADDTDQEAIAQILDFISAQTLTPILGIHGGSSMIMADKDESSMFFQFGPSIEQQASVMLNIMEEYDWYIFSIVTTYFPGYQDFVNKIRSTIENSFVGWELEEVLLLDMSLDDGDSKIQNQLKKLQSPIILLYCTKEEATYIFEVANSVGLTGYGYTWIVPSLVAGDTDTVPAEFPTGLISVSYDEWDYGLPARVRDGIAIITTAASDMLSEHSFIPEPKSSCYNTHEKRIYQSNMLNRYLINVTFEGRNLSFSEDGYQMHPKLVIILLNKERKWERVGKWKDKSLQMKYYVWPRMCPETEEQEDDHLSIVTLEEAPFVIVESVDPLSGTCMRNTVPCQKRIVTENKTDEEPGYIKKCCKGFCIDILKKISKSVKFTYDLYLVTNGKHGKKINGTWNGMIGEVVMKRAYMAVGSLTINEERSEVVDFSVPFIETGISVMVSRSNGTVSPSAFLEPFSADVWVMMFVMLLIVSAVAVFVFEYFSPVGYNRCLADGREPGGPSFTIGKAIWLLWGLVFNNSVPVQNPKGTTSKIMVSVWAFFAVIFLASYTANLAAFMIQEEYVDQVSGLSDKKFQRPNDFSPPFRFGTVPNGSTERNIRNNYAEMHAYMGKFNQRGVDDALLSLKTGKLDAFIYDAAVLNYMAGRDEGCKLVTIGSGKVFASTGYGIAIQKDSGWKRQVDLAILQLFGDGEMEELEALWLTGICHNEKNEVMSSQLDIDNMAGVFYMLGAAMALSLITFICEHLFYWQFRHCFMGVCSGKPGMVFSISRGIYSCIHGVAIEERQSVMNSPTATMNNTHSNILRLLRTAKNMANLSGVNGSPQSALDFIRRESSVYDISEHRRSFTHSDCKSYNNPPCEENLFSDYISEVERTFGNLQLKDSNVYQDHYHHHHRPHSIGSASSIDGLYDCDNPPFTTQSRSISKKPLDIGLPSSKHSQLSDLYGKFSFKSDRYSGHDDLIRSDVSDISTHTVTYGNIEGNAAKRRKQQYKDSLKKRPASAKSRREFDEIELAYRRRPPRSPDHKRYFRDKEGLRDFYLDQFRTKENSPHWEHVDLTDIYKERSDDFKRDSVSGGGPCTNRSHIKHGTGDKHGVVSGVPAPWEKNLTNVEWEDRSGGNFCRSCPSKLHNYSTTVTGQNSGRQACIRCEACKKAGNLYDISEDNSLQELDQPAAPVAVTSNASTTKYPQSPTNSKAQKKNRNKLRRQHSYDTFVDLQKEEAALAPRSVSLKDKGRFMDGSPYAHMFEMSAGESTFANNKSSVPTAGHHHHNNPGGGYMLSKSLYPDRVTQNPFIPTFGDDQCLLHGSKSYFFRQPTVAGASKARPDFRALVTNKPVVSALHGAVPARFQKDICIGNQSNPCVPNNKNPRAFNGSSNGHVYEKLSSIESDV
T2 sequence (Q13224 27-1484, other chains not shown): as above

Usually IC50 stands for the concentration that inhibits the measured activity by half. In the case of `CNC(=O)C1CN(Cc2cncc(-c3ccc(F)c(C(F)F)c3)n2)C(=O)O1` (racemic) [Example 59, (R/S)-3-[[6-[3-(Difluoromethyl)-4-fluoro-phenyl]pyrazin-2-yl]methyl]-N-methyl-2-oxo-oxazolidine-5-carboxamide], the “Extraction Ratio @ 1 μM” value in data set [1] is recorded as 0.18. Also, the IC50 in data set [2] was over 3000 nM.

In the case of `CNC(=O)C1CN(Cc2cncc(-c3ccc(F)c(C(C)(F)F)c3)n2)C(=O)O1` (racemic) [Example 63, (R/S)-3-[[6-[3-(1,1-Difluoroethyl)-4-fluoro-phenyl]pyrazin-2-yl]methyl]-N-methyl-2-oxo-oxazolidine-5-carboxamide], in data set [2], the IC50 is over 3000 nM.

On to `CC(F)(F)c1cc(-c2cncc(CN3CC(C(=O)N4CCC4)OC3=O)n2)ccc1F` (racemic) [Example 64, (R/S)-5-(Azetidine-1-carbonyl)-3-[[6-[3-(1,1-difluoroethyl)-4-fluoro-phenyl]pyrazin-2-yl]methyl]oxazolidin-2-one], for which the IC50 in data set [2] was over 3000 nM.

For `CN(C)C(=O)C1CN(Cc2cncc(-c3ccc(F)c(C(F)F)c3)n2)C(=O)O1` (racemic) [Example 65, (R/S)-3-[[6-[3-(Difluoromethyl)-4-fluoro-phenyl]pyrazin-2-yl]methyl]-N,N-dimethyl-2-oxo-oxazolidine-5-carboxamide], the IC50 in data set [2] was over 3000 nM.

Consider `CN(C)C(=O)C1CN(Cc2cncc(-c3ccc(F)c(OC(F)F)c3)n2)C(=O)O1` (racemic) [Example 66, (R/S)-3-[[6-[3-(Difluoromethoxy)-4-fluoro-phenyl]pyrazin-2-yl]methyl]-N,N-dimethyl-2-oxo-oxazolidine-5-carboxamide], for which, in data set [2], the concentration for half-maximal inhibition (IC50) is 141 nM.

In the case of `O=C1OC2(CC2)CN1Cc1cncc(-c2ccc(F)c(C(F)F)c2)n1` [Example 3, 5-[[6-[3-(Difluoromethyl)-4-fluoro-phenyl]pyrazin-2-yl]methyl]-7-oxa-5-azaspiro[2.4]heptan-6-one], the “Extraction Ratio @ 1 μM” value in data set [1] is 0.05. In data set [3], the IC50 worked out at 13 nM.

As for `C[C@H]1COC(=O)N1Cc1cncc(-c2ccc(F)c(C(F)F)c2)n1` [Example 8, (4S)-3-[[6-[3-(Difluoromethyl)-4-fluoro-phenyl]pyrazin-2-yl]methyl]-4-methyl-oxazolidin-2-one], the “Extraction Ratio @ 1 μM” value in data set [1] was 0.06. Moreover, in data set [3], the half-maximal inhibitory concentration (IC50) stood at 872 nM.

Take `Cc1ncc(-c2ccc(F)c(C(F)F)c2)nc1CN1C(=O)OC[C@H]1C` [Example 11, (4R)-3-[[6-[3-(Difluoromethyl)-4-fluoro-phenyl]-3-methyl-pyrazin-2-yl]methyl]-4-methyl-oxazolidin-2-one]: the “Extraction Ratio @ 1 μM” value in data set [1] turned out to be 0.18. Moreover, in data set [3], the IC50 stood at 192 nM.

For the compound `Cc1ncc(-c2ccc(F)c(C(F)F)c2)nc1CN1CCCOC1=O` [Example 15, 3-[[6-[3-(Difluoromethyl)-4-fluoro-phenyl]-3-methyl-pyrazin-2-yl]methyl]-1,3-oxazinan-2-one], the “Extraction Ratio @ 1 μM” value in data set [1] is 0.06. Moreover, the 50% inhibitory concentration (IC50) in data set [3] is 65 nM.
